Experimental data reported in PubChem BioAssay AID1963840 (Molecular Pharmacology Branch, DTP, NCI, 2024).

Test system: 695427-040-R-J1-PDC complex spheroid viability
Assay: Anticancer human tumor 695427-040-R-J1-PDC patient-derived colon adenocarcinoma cell line growth inhibition [POLQ]
Settings: for IC50: curve of first compound; for viability, T/C: stronger effect = lower value
Outline: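 PDC + HUVEC + MSC complex spheroids; POLQ inhibitors ± partner drugs; top conc. at/near clinical Cmax, else 10 microM (SN-38 1 microM), half-log dilutions; 37 degrees C, 5% CO2.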

[1] = second compound 0.0316 µM, first compound 0.0316 µM
[2] = second compound 0.0316 µM, first compound 0.1 µM
[3] = second compound 0.0316 µM, first compound 0.316 µM
[4] = second compound 0.0316 µM, first compound 1 µM
[5] = second compound 0.0316 µM, first compound 3.16 µM
[6] = second compound 0.0316 µM, first compound 10 µM
[7] = second compound 0.1 µM, first compound 0.0316 µM
[8] = second compound 0.1 µM, first compound 0.1 µM
[9] = second compound 0.1 µM, first compound 0.316 µM
[10] = second compound 0.1 µM, first compound 1 µM
[11] = second compound 0.1 µM, first compound 3.16 µM
[12] = second compound 0.1 µM, first compound 10 µM
[13] = second compound 0.316 µM, first compound 0.0316 µM
[14] = second compound 0.316 µM, first compound 0.1 µM
[15] = second compound 0.316 µM, first compound 0.316 µM
[16] = second compound 0.316 µM, first compound 1 µM
[17] = second compound 0.316 µM, first compound 3.16 µM
[18] = second compound 0.316 µM, first compound 10 µM
[19] = second compound 1 µM, first compound 0.0316 µM
[20] = second compound 1 µM, first compound 0.1 µM
[21] = second compound 1 µM, first compound 0.316 µM
[22] = second compound 1 µM, first compound 1 µM
[23] = second compound 1 µM, first compound 3.16 µM
[24] = second compound 1 µM, first compound 10 µM
[25] = second compound 3.16 µM, first compound 0.0316 µM
[26] = second compound 3.16 µM, first compound 0.1 µM
[27] = second compound 3.16 µM, first compound 0.316 µM
[28] = second compound 3.16 µM, first compound 1 µM
[29] = second compound 3.16 µM, first compound 3.16 µM
[30] = second compound 3.16 µM, first compound 10 µM
[31] = second compound 10 µM, first compound 0.0316 µM
[32] = second compound 10 µM, first compound 0.1 µM
[33] = second compound 10 µM, first compound 0.316 µM
[34] = second compound 10 µM, first compound 1 µM
[35] = second compound 10 µM, first compound 3.16 µM
[36] = second compound 10 µM, first compound 10 µM
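Note: spheroids exposed to compounds for seven days.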
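Throughout, for viability, T/C: 100% = DMSO vehicle control viability.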

CC1COCCN1c1cc(C2(O)CC3CCC(C2)O3)c2cnn(-c3ccn[nH]3)c2n1 (centres undefined) + Nc1ccc(C#CCN(C(=O)Cc2ncc(C(F)(F)F)cc2C(F)(F)F)c2ccc(F)cc2)nn1
IC50 (second compound 0.0316 µM): > 10 µM
IC50 (second compound 0.1 µM): > 10 µM
IC50 (second compound 0.316 µM): > 10 µM
IC50 (second compound 1 µM): > 10 µM
IC50 (second compound 3.16 µM): > 10 µM
IC50 (second compound 10 µM): > 10 µM
viability, T/C [1]: 103%
viability, T/C [2]: 92.9%
viability, T/C [3]: 83%
viability, T/C [4]: 78.6%
viability, T/C [5]: 65.9%
viability, T/C [6]: 60.5%
viability, T/C [7]: 111%
viability, T/C [8]: 96.5%
viability, T/C [9]: 88%
viability, T/C [10]: 76.3%
viability, T/C [11]: 69%
viability, T/C [12]: 56.3%
viability, T/C [13]: 99.4%
viability, T/C [14]: 96.7%
viability, T/C [15]: 76.7%
viability, T/C [16]: 72.4%
viability, T/C [17]: 70.3%
viability, T/C [18]: 54.5%
viability, T/C [19]: 106%
viability, T/C [20]: 95.3%
viability, T/C [21]: 84%
viability, T/C [22]: 70.5%
viability, T/C [23]: 66.4%
viability, T/C [24]: 49.5%
viability, T/C [25]: 104%
viability, T/C [26]: 87%
viability, T/C [27]: 86.4%
viability, T/C [28]: 66.6%
viability, T/C [29]: 62.4%
viability, T/C [30]: 58.6%
viability, T/C [31]: 106%
viability, T/C [32]: 91.2%
viability, T/C [33]: 78.3%
viability, T/C [34]: 65.1%
viability, T/C [35]: 58.9%
viability, T/C [36]: 56.9%

O=C(Nc1ccc(O)c(NS(=O)(=O)c2ccc(F)cc2)c1)c1ccc(-c2ccccc2)cc1 + Nc1ccc(C#CCN(C(=O)Cc2ncc(C(F)(F)F)cc2C(F)(F)F)c2ccc(F)cc2)nn1
IC50 (second compound 0.0316 µM): > 10 µM
IC50 (second compound 0.1 µM): > 10 µM
IC50 (second compound 0.316 µM): > 10 µM
IC50 (second compound 1 µM): > 10 µM
IC50 (second compound 3.16 µM): > 10 µM
IC50 (second compound 10 µM): > 10 µM
viability, T/C [1]: 108%
viability, T/C [2]: 107%
viability, T/C [3]: 105%
viability, T/C [4]: 107%
viability, T/C [5]: 109%
viability, T/C [6]: 91.9%
viability, T/C [7]: 112%
viability, T/C [8]: 105%
viability, T/C [9]: 92.8%
viability, T/C [10]: 104%
viability, T/C [11]: 104%
viability, T/C [12]: 97.3%
viability, T/C [13]: 106%
viability, T/C [14]: 106%
viability, T/C [15]: 99.8%
viability, T/C [16]: 101%
viability, T/C [17]: 108%
viability, T/C [18]: 87.4%
viability, T/C [19]: 112%
viability, T/C [20]: 97.4%
viability, T/C [21]: 99.1%
viability, T/C [22]: 105%
viability, T/C [23]: 119%
viability, T/C [24]: 80.2%
viability, T/C [25]: 108%
viability, T/C [26]: 104%
viability, T/C [27]: 99.2%
viability, T/C [28]: 109%
viability, T/C [29]: 112%
viability, T/C [30]: 112%
viability, T/C [31]: 99%
viability, T/C [32]: 94%
viability, T/C [33]: 104%
viability, T/C [34]: 94.7%
viability, T/C [35]: 93.5%
viability, T/C [36]: 88.1%
